The results in this text go back to PubChem BioAssay (NCI).

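Protocol summary: plate cells (96-well), add compound at 5 concentrations, incubate 48 h, interpolate endpoints linearly. At the GI50, growth is halved. TGI marks complete inhibition of growth.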 Where a SMILES comes first, the peptide text is derived from it. Bridges are numbered along the chain shown (N, C = ends). [ ]: non-standard residue; d: D form. aThr = C[C@H](O)[C@H](N)C(=O)O

Test systems include COLO 205 colon; DU-145 prostate; K-562 leukemia; MDA-MB-435; OVCAR-4 ovarian; OVCAR-5 ovarian; SNB-75 CNS; UO-31 renal.
What all share (assay): DTP human tumour cell line panel, 48 h

A word on the GI50: it is the concentration giving 50% growth inhibition. One may read the TGI as the concentration giving total growth inhibition.

Turning to `CC(=O)NC1C(O[C@H]2C[C@H]3[C@@H]4CC=C5C[C@@H](O)CC[C@]5(C)[C@H]4CC[C@]3(C)[C@H]2[C@H](C)C(=O)CCC(C)C)OCC(O)C1O` (some centres not stated), the GI50 in the assay on COLO 205 colon was 2.13 µM; in the assay on DU-145 prostate, 5.89 µM; in the assay on K-562 leukemia it was 1.35 µM; with MDA-MB-435, 2.06 µM; in the assay with OVCAR-4 ovarian, 5.31 µM; with OVCAR-5 ovarian, 6.34 µM. The GI50 with SNB-75 CNS is 0.909 µM; in the assay with UO-31 renal, 1.18 µM. For the same molecule, the TGI with COLO 205 colon is 8.75 µM; with DU-145 prostate, over 42.5 µM; in the assay with K-562 leukemia, 5.16 µM; in the assay with MDA-MB-435, 8.73 µM; with OVCAR-4 ovarian it was 41 µM; in the assay with OVCAR-5 ovarian it was 20.1 µM. Further, the TGI in the assay on SNB-75 CNS worked out at 10.9 µM; with UO-31 renal it was 3.52 µM.

In the case of `Cc1cc(Br)c(NC(=O)c2c(-c3c(Cl)cccc3Cl)noc2C)c(Br)c1`, the GI50 in the assay with COLO 205 colon was over 100 µM; in the assay on DU-145 prostate, 90.8 µM; in the assay on K-562 leukemia it was over 100 µM; in the assay with MDA-MB-435, over 100 µM; with OVCAR-4 ovarian, 73.4 µM; with OVCAR-5 ovarian, over 100 µM. For the same molecule, the GI50 in the assay on SNB-75 CNS is 47.2 µM; in the assay on UO-31 renal, over 100 µM. Further, the TGI with COLO 205 colon, in the assay with DU-145 prostate, in the assay on K-562 leukemia, with MDA-MB-435, with OVCAR-4 ovarian and with OVCAR-5 ovarian was over 100 µM each time. For the same molecule, the total growth inhibition concentration (TGI) in the assay with SNB-75 CNS and in the assay on UO-31 renal was over 100 µM each time.

`COC12C(COC(=O)NCCO)C3=C(C(=O)C(C)=C(N)C3=O)N1CC1NC12` (configuration not stated): the TGI in the assay on COLO 205 colon is 85.8 µM; with DU-145 prostate it was 236 µM; in the assay on K-562 leukemia, over 264 µM; with MDA-MB-435, over 264 µM; in the assay on OVCAR-4 ovarian, 119 µM; with OVCAR-5 ovarian, over 264 µM. This molecule returned a total growth inhibition concentration (TGI) in the assay on UO-31 renal of over 264 µM. For the same molecule, the GI50 in the assay with OVCAR-4 ovarian is 53.2 µM; with OVCAR-5 ovarian, 78.1 µM; with UO-31 renal, over 264 µM.

Turning to `CC(C)C[C@@H]1NC(=O)[C@@H]2CCCN2C(=O)[C@@H]2CCCN2C(=O)[C@H](CC(C)C)NC(=O)[C@H](CO)NC(=O)[C@H](CCCCN)NC(=O)[C@H]([C@H](C)O)NC(=O)[C@@H]2CSSC[C@@H](NC1=O)C(=O)N[C@@H](Cc1ccccc1)C(=O)N1CCC[C@H]1C(=O)N[C@@H](CC(=O)O)C(=O)NCC(=O)N[C@@H](CCCN=C(N)N)C(=O)N2` (cyclo(C[aThr]KSLPPL[dC]FPDGR); disulfide 1-9), the GI50 with COLO 205 colon, in the assay with DU-145 prostate, with K-562 leukemia, in the assay on MDA-MB-435, with OVCAR-4 ovarian and in the assay on OVCAR-5 ovarian was over 50 µM in each case. Also, the GI50 in the assay on UO-31 renal was over 50 µM. The concentration for total growth inhibition (TGI) in the assay with COLO 205 colon, with DU-145 prostate, with K-562 leukemia, in the assay with MDA-MB-435, in the assay on OVCAR-4 ovarian and in the assay with OVCAR-5 ovarian was over 50 µM in each case. Besides, the TGI in the assay with UO-31 renal was over 50 µM.

`COc1ccc(C(O)c2cc3c(N)c(C(=O)Nc4cccc5ccccc45)sc3nc2C)cc1` (configuration not stated): the GI50 in the assay on COLO 205 colon is 0.457 µM; with DU-145 prostate, 0.348 µM; with K-562 leukemia, 0.314 µM; with MDA-MB-435, 0.127 µM; with OVCAR-4 ovarian, 1.58 µM; in the assay with OVCAR-5 ovarian it was 0.493 µM. Also, the concentration for 50% growth inhibition (GI50) with SNB-75 CNS is 0.39 µM; with UO-31 renal, 0.622 µM. The TGI was over 33.1 µM in the assay with COLO 205 colon; 3.12 µM in the assay on DU-145 prostate; over 53.9 µM in the assay on K-562 leukemia; 0.415 µM in the assay with MDA-MB-435; over 100 µM with OVCAR-4 ovarian; over 100 µM in the assay on OVCAR-5 ovarian. The concentration for total growth inhibition (TGI) in the assay with SNB-75 CNS is over 100 µM; with UO-31 renal it was over 75.4 µM.

Consider `OCC1CC[N-]CC1.OCC1CC[N-]CC1.[Cl][Pt+2]([Cl])([Cl])[Cl]`, for which the GI50 in the assay with COLO 205 colon is 29.3 µM; with DU-145 prostate, 20.8 µM; in the assay with K-562 leukemia, 35.9 µM; in the assay with MDA-MB-435, 24.4 µM; in the assay on OVCAR-4 ovarian, 42.5 µM; in the assay with OVCAR-5 ovarian it was 22.7 µM. Besides, the GI50 in the assay with UO-31 renal was 31.2 µM. Further, the total growth inhibition concentration (TGI) with DU-145 prostate turned out to be 61.5 µM; with MDA-MB-435 it was 64.9 µM; in the assay on OVCAR-5 ovarian it was 51.5 µM; in the assay on UO-31 renal, 89.9 µM.

`Nc1nc(=S)c2ncn(C3OC(COP(=O)(O)O)C(O)C3O)c2[nH]1` (configuration not stated): the GI50 is 2.66 µM in the assay with COLO 205 colon; 0.577 µM in the assay with DU-145 prostate; 0.965 µM in the assay with K-562 leukemia; 2.48 µM with MDA-MB-435; 2.19 µM in the assay on OVCAR-4 ovarian; 0.752 µM in the assay on OVCAR-5 ovarian. Further, the GI50 with SNB-75 CNS was 0.96 µM; with UO-31 renal it was 1.98 µM. Moreover, the total growth inhibition concentration (TGI) is 9.04 µM in the assay with COLO 205 colon; over 100 µM in the assay with DU-145 prostate; over 100 µM in the assay on K-562 leukemia; over 100 µM in the assay on MDA-MB-435; over 100 µM in the assay on OVCAR-4 ovarian; over 100 µM in the assay on OVCAR-5 ovarian. Further, the TGI with SNB-75 CNS and with UO-31 renal was over 100 µM each time.

`COCCOC1=C(Cl)C(=O)c2ccccc2C1=O`: the GI50 in the assay on COLO 205 colon is 3.63 µM; in the assay with DU-145 prostate it was 3.1 µM; in the assay on MDA-MB-435, 3.08 µM; in the assay with OVCAR-4 ovarian it was 2.17 µM; with OVCAR-5 ovarian, 3.22 µM; in the assay with SNB-75 CNS it was 2.75 µM. In addition, the GI50 with UO-31 renal was 3.07 µM. Besides, the TGI came out at 12.2 µM in the assay with COLO 205 colon; 10.7 µM in the assay with DU-145 prostate; 10.4 µM with MDA-MB-435; 4.68 µM in the assay on OVCAR-4 ovarian; 9.52 µM in the assay with OVCAR-5 ovarian; 10.1 µM in the assay on SNB-75 CNS. This molecule gave a TGI in the assay with UO-31 renal of 16 µM.

Take `C=C(CN1CCc2[nH]c3ccc(F)cc3c2C1)c1ccc(C(=O)Nc2ccccc2N)cc1`: the GI50 in the assay on COLO 205 colon was 2.37 µM; with DU-145 prostate it was 1.66 µM; in the assay on K-562 leukemia it was 1.06 µM; in the assay with MDA-MB-435 it was 1.6 µM; with OVCAR-5 ovarian it was 4.32 µM; in the assay with SNB-75 CNS it was 2.14 µM. The GI50 in the assay on UO-31 renal was 0.997 µM. Moreover, the TGI in the assay with COLO 205 colon worked out at 6.66 µM; with DU-145 prostate, 3.94 µM; in the assay on K-562 leukemia, 14.6 µM; in the assay with MDA-MB-435, 4.07 µM; in the assay with OVCAR-5 ovarian, 20.6 µM; in the assay on SNB-75 CNS, 7.4 µM. Also, in the assay on UO-31 renal, the TGI is 4.14 µM.
